This passage reports IC50 results from patent US20240109900A1, “AZABICYCLIC SHP2 INHIBITORS” (IRBM S.P.A., priority 2021, published 2024).

Read-outs that look alike come from different tables or passages of the source.

Test [1] deals with ERK phosphorylation in KYSE-520 cells. Put plainly: Phospho-ERK cellular assay. The test is classed as cell-based. Conditions: KYSE-520 cells, 2 h at 37° C., phospho-ERK1/2 (Thr202/Tyr204) TR-FRET, read-out: PERK IC50. The procedure, abridged: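 TR-FRET read-out of ERK1/2 Thr202/Tyr204 phosphorylation was taken after overnight antibody incubation at room temperature. Before that, KYSE-520 cells were treated 2 h at 37 °C with compound dilutions and lysed 30 min. Percent inhibition relative to vehicle and cell-free wells was fitted four-parametrically to give IC50.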

The target of test [2] is SHP-2 enzyme (Met1-Leu525) (Homo sapiens (Human), UniProt Q06124). Description: SHP2 inhibition enzymatic assay. The test is classed as biochemical. To be noted: 0.5 nM SHP-2 activated by 500 nM IRS1 peptide, 75 μM DiFMUP substrate; read-out: SHP2wt-IC50. The procedure, abridged:
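Compounds were preincubated 30 min with 0.5 nM SHP-2 (Met1-Leu525) plus 500 nM IRS1 activating peptide (pH 7.2 HEPES, 5 mM DTT), then 75 μM DiFMUP substrate reacted 30 min at room temperature. After bpV quench, DiFMUP fluorescence gave % inhibition; four-parameter logistic fit yielded IC50.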

Chain of SHP-2 enzyme (Met1-Leu525) (Q06124 1-525): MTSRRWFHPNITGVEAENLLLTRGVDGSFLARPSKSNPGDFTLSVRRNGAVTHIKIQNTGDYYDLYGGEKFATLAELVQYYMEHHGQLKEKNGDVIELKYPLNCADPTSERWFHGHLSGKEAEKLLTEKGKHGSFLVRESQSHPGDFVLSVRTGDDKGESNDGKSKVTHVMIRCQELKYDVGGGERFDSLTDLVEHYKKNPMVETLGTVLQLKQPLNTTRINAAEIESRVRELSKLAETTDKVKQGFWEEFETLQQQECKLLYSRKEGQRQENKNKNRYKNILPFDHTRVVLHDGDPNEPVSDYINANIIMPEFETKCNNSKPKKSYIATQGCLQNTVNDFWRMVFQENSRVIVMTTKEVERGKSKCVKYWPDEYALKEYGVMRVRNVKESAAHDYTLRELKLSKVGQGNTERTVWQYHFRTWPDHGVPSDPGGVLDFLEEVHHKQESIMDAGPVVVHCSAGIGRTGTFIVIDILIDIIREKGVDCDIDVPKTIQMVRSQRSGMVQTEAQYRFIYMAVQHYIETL

With `COc1ccc(-c2n[nH]c3nc(N4CC[C@@H]5[C@H](C4)[C@@]5(CN)c4ccccc4F)cnc23)c2ccncc12` [Example 219, ((1S,6R,7R)-7-(2-fluorophenyl)-3-(3-(8-methoxyisoquinolin-5-yl)-1H-pyrazolo[3,4-b]pyrazin-6-yl)-3-azabicyclo[4.1.0]heptan-7-yl)methanamine], the IC50 in test [1] (Homo sapiens, KYSE-520, 2 h) is under 1000 nM; in test [2], under 500 nM.
`NC[C@]1(c2ccccc2F)[C@@H]2CCN(c3cnc4c(-c5ccnc(-c6cnco6)c5Cl)n[nH]c4n3)C[C@@H]21` [Example 263, ((1S,6R,7R)-3-(3-(3-chloro-2-(oxazol-5-yl)pyridin-4-yl)-1H-pyrazolo[3,4-b]pyrazin-6-yl)-7-(2-fluorophenyl)-3-azabicyclo[4.1.0]heptan-7-yl)methanamine]: the IC50 was under 1000 nM in test [1] (Homo sapiens, KYSE-520, 2 h) and under 500 nM in test [2].
As to `Cc1csc(C2(CN)C3CCN(c4cnc(Sc5cccnc5C(F)(F)F)c(N)n4)CC32)n1` (stereo not shown) [Example 73, 6-(7-(aminomethyl)-7-(4-methylthiazol-2-yl)-3-azabicyclo[4.1.0]heptan-3-yl)-3-((2-(trifluoromethyl)pyridin-3-yl)thio)pyrazin-2-amine], the IC50 is 1000 to 5000 nM in test [1] (Homo sapiens, KYSE-520, 2 h) and under 500 nM in test [2].
With `NC[C@]1(c2ccccc2F)[C@@H]2CCN(c3cnc4c(-c5cc(F)c(CO)c(F)c5)n[nH]c4n3)C[C@@H]21` [Example 381, (4-(6-((1S,6R,7R)-7-(aminomethyl)-7-(2-fluorophenyl)-3-azabicyclo[4.1.0]heptan-3-yl)-1H-pyrazolo[3,4-b]pyrazin-3-yl)-2,6-difluorophenyl)methanol], the IC50 was over 5000 nM in test [1] (Homo sapiens, KYSE-520, 2 h) and under 500 nM in test [2].
Consider `COc1cc(-c2ccc3nc(N4CC[C@@H]5[C@H](C4)[C@@]5(CN)c4ccccc4F)cnc3n2)cc2cccnc12` [Example 435, ((1S,6R,7R)-7-(2-fluorophenyl)-3-(6-(8-methoxyquinolin-6-yl)pyrido[2,3-b]pyrazin-2-yl)-3-azabicyclo[4.1.0]heptan-7-yl)methanamine], for which the IC50 in test [1] (Homo sapiens, KYSE-520, 2 h) is under 1000 nM; in test [2], under 500 nM.
The corresponding values for `Cc1cc([C@@]2(CN)[C@@H]3CCN(c4cnc5c(-c6ccc(OC(F)(F)F)c7ncccc67)n[nH]c5n4)C[C@@H]32)no1` [Example 126, ((1S,6R,7S)-7-(5-methylisoxazol-3-yl)-3-(3-(8-(trifluoromethoxy)quinolin-5-yl)-1H-pyrazolo[3,4-b]pyrazin-6-yl)-3-azabicyclo[4.1.0]heptan-7-yl)methanamine] are under 1000 nM and under 500 nM.
Taken in the same sequence, the figures for `Cc1cc([C@@]2(CN)[C@@H]3CCN(c4cnc5c(-c6ccc7nn(C)cc7c6Cl)n[nH]c5n4)C[C@@H]32)no1` [Example 46, ((1S,6R,7S)-3-(3-(4-chloro-2-methyl-2H-indazol-5-yl)-1H-pyrazolo[3,4-b]pyrazin-6-yl)-7-(5-methylisoxazol-3-yl)-3-azabicyclo[4.1.0]heptan-7-yl)methanamine] were under 1000 nM and under 500 nM.
Taken in the same sequence, the figures for `NC[C@]1(c2ccccc2F)[C@@H]2CCN(c3cnc4c(-c5ccc(C(N)=O)c6ncccc56)n[nH]c4n3)C[C@@H]21` [Example 220, 5-(6-((1S,6R,7R)-7-(aminomethyl)-7-(2-fluorophenyl)-3-azabicyclo[4.1.0]heptan-3-yl)-1H-pyrazolo[3,4-b]pyrazin-3-yl)quinoline-8-carboxamide] were under 1000 nM and under 500 nM.
With `COc1cnc2ccc(-c3n[nH]c4nc(N5CC[C@@H]6[C@H](C5)[C@@]6(CN)c5ccccc5F)cnc34)cc2n1` [Example 188, ((1S,6R,7R)-7-(2-fluorophenyl)-3-(3-(3-methoxyquinoxalin-6-yl)-1H-pyrazolo[3,4-b]pyrazin-6-yl)-3-azabicyclo[4.1.0]heptan-7-yl)methanamine], the IC50 in test [1] (Homo sapiens, KYSE-520, 2 h) was under 1000 nM; in test [2] it was under 500 nM.
Taken in the same sequence, the figures for `Cc1csc([C@@]2(CN)[C@@H]3CN(c4nc5[nH]cc(-c6ccc7nn(C)cc7c6Cl)c5c(=O)n4C)C[C@@H]32)n1` [Example 473, 2-((1R,5S,6r)-6-(aminomethyl)-6-(4-methylthiazol-2-yl)-3-azabicyclo[3.1.0]hexan-3-yl)-5-(4-chloro-2-methyl-2H-indazol-5-yl)-3-methyl-3,7-dihydro-4H-pyrrolo[2,3-d]pyrimidin-4-one] were under 1000 nM and under 500 nM.
The corresponding values for `NC[C@]1(c2ccccc2F)[C@@H]2CCN(c3cnc4c(-c5cccc6c(=O)[nH]ccc56)n[nH]c4n3)C[C@@H]21` [Example 209, 5-(6-((1S,6R,7R)-7-(aminomethyl)-7-(2-fluorophenyl)-3-azabicyclo[4.1.0]heptan-3-yl)-1H-pyrazolo[3,4-b]pyrazin-3-yl)isoquinolin-1(2H)-one] are under 1000 nM and under 500 nM.
Taken in the same sequence, the figures for `Cn1ccc(-c2nccc(-c3n[nH]c4nc(N5CC[C@@H]6[C@H](C5)[C@@]6(CN)c5ccccc5F)cnc34)c2Cl)n1` [Example 265, ((1S,6R,7R)-3-(3-(3-chloro-2-(1-methyl-1H-pyrazol-3-yl)pyridin-4-yl)-1H-pyrazolo[3,4-b]pyrazin-6-yl)-7-(2-fluorophenyl)-3-azabicyclo[4.1.0]heptan-7-yl)methanamine] were under 1000 nM and under 500 nM.
As for `NC[C@]1(c2ccccc2F)[C@@H]2CCN(c3cnc4c(-c5ccc(C(=O)O)cc5Cl)n[nH]c4n3)C[C@@H]21` [Example 271, 4-(6-((1S,6R,7R)-7-(aminomethyl)-7-(2-fluorophenyl)-3-azabicyclo[4.1.0]heptan-3-yl)-1H-pyrazolo[3,4-b]pyrazin-3-yl)-3-chlorobenzoic acid], the IC50 was over 5000 nM in test [1] (Homo sapiens, KYSE-520, 2 h) and under 500 nM in test [2].
With `Cc1csc([C@@]2(CN)[C@@H]3CN(c4cnc5c(-c6ccncc6Cl)n[nH]c5n4)C[C@@H]32)n1` [Example 519], the IC50 is under 1000 nM in test [1] and under 500 nM in test [2].
Regarding `NC[C@]1(c2ccccc2F)[C@@H]2CCN(c3cnc4c(N5CC6(CCC6)c6ncccc65)n[nH]c4n3)C[C@@H]21` [Example 270, ((1S,6R,7R)-7-(2-fluorophenyl)-3-(3-(spiro[cyclobutane-1,3′-pyrrolo[3,2-b]pyridin]-1′(2′H)-yl)-1H-pyrazolo[3,4-b]pyrazin-6-yl)-3-azabicyclo[4.1.0]heptan-7-yl)methanamine], the IC50 in test [1] (Homo sapiens, KYSE-520, 2 h) was under 1000 nM; in test [2], under 500 nM.
The corresponding values for `Cc1cc(C2(CN)C3CCN(c4cnc5c(-c6ccc(Cl)c7ncccc67)n[nH]c5n4)CC32)no1` (stereo not shown) [Example 33, (3-(3-(8-chloroquinolin-5-yl)-1H-pyrazolo[3,4-b]pyrazin-6-yl)-7-(5-methylisoxazol-3-yl)-3-azabicyclo[4.1.0]heptan-7-yl)methanamine] are under 1000 nM and under 500 nM.
The corresponding values for `NC[C@]1(c2ccccc2F)[C@@H]2CCN(c3cnc4c(-c5ccc(S(N)(=O)=O)cc5Cl)n[nH]c4n3)C[C@@H]21` [Example 346, 4-(6-((1S,6R,7R)-7-(aminomethyl)-7-(2-fluorophenyl)-3-azabicyclo[4.1.0]heptan-3-yl)-1H-pyrazolo[3,4-b]pyrazin-3-yl)-3-chlorobenzenesulfonamide] are over 5000 nM and under 500 nM.
